Results published in patent US10751304B2, “Topical and transdermal delivery of HIF-1 modulators to prevent and treat chronic wounds” (The Board of Trustees of the Leland Stanford Junior …, priority 2008, dated 2020).
“Also recorded” adds a separate entry of the source.

Tests used:
[1] = system: pressure ulcers on the dorsum of aged mice; assay: Murine pressure (decubitus) ulcer model in aged mice; assay type: in vivo; conditions: n=6
Text: (§1) Pressure ulcers on the dorsum of aged mice (19 month, NIA) and Diabetic (Db/Db) C57Bl/6 mice (n=6 per group) where created using two ceramic magnets (12 mm diameter and 5 mm thick, and average weight of 2.4 g) that apply 50 mm Hg pressure to the skin between them (Stadler et. al. J Invest Surg. 2004 July-August; 17(4):221-7). A single ischemia/reperfusion (I/R) cycle consists of placement of magnets (ischemia) for a designated time period followed by release (reperfusion). Three ischemia-reperfusion cycles were used in each animal to initiate decubitus ulcer formation (either in 3 h or 12 h cycles). Animals were housed individually, to prevent the accidental dislocation of the magnets and to prevent tampering with the resultant ulcer.
(§2) CD31 staining was performed on paraffin embedded 5-micron wound sections (1:50, Santa Cruz Biotechnology, Santa Cruz, Calif.) diluted in blocking goat serum overnight at 4° C. […] Sections were then mounted with Vectashield plus DAPI (Vector Laboratories, Burlingame, Calif.), and analyzed using a Zeiss Axioplan 2 light-fluorescent microscope (Carl Zeiss Vision, Germany) equipped with Zeiss AxioCam HR digital imaging software (Carl Zeiss Vision). […]
We evaluated the ability of DFO to prevent pressure ulcer formation, which has been associated with HIF-1α dysfunction and diabetes, using a previously described murine pressure ulcer model. […]

VEGF = VEGF ELISA of harvested wounds; assay type: in vivo, murine; conditions: control 100 ng/ml
Description: ELISA. Total protein was isolated from harvested wounds by homogenizing tissue in RIPA buffer. VEGF and SDF-1 levels were measured using the Quantikine murine VEGF and SDF-1 ELISA kits (R&D Systems, Minneapolis, Minn.) according to manufacturer's instructions.

[2] = system: excisional wounds of diabetic (Db/Db) mice; assay: Murine excisional wound healing model, diabetic (Db/Db) mice; assay type: in vivo; conditions: topical, delivery control day 23
Text: Young (8 weeks, Jackson Laboratories) aged (18-24 months, National Institute of Aging aged rodent colony), and Diabetic (Db/Db) C57/BL6 mice (n=4 per group) underwent excisional wound biopsies in accordance with the Stanford University Institutional Animal Care and Use Committees. Wounds were made as previously described. Briefly, two 6-mm circular, full-thickness wounds were made on the dorsum of mice. A 12 mm diameter, 0.5 mm thick donut shaped silicone ring (Grace Bio-Labs, Bend, Oreg.) was then placed around the wounds preventing premature skin contracture. […] Wounds were dressed with a sterile occlusive dressing that was changed daily, monitored, and photographed every other day until closure. […]
as §2
Transdermal delivery of DFO accelerates murine wound healing: Given the optimal release properties and structural parameters determined above, we sought to evaluate the ability of our DFO delivery device to improve gross wound healing in diabetic mice. […]

diabetic ulcers = assay: Murine pressure ulcer model, diabetic mice, transdermal patch; assay type: in vivo; conditions: transdermal patch delivery; controls Day 45+
Text: as §1
30 μm fresh frozen sections were washed with PBS and stained with 10 μM Dihydroethidium (DHE, invitrogen) at 37 C for 30 minutes. Slides were then washed with PBS, and Vectashield with DAPI was added.
Transdermal delivery of DFO reduces ROS accumulation and ulcer formation: We have completed studies examining the ability of our DFO patch to ameliorate diabetes-associated deficits in wound healing using our pressure ulcer model. This injury model causes increased levels of ROS, as assayed using dihydroethidium (DHE) fluorescent staining.

[3] = DFO patch release and skin penetration (Example 4); assay type: in vitro ADME

With `CC(=O)N(O)CCCCCNC(=O)CCC(=O)N(O)CCCCCNC(=O)CCC(=O)N(O)CCCCCN` [deferoxamine] the ulcer closure date ([1]; controls day 19) was 17 days, the Ulcer incidence ([1]; pressure ulcer model, controls 100%) was 33% and the “VEGF via ELISA” value (VEGF) was 200 ng/mL. The wound closure [2] was 13 days, the diabetic ulcer closure (diabetic ulcers) was 30 days and the “DFO uptake into the skin / DFO delivery” value ([3]; reverse micelles destabilized using 5% DMSO, listed as DFO) was “inhibit DFO delivery; also recorded: significantly reduces the DFO uptake into the skin”. For the same compound, the drug penetration ([3]; without an occlusive backing) was “very minimal drug penetration” and the “reduction in skin penetration of DFO” value ([3]; without backing membrane) was 10 fold.
